This data set in a line: Cys-Lys stapling of unprotected peptides with unsymmetrical linker (1.5 equiv): Cys thiol displaces phthalimide from N-thiophthalimide (disulfide, ~1 min), then ring closure by Lys amine attack on pentafluorophenyl ester with DIPEA (4 equiv). The note with it: the molecule shown is the open-chain precursor, CH3CN:H2O 3:1, 25.0 °C, 0.167 h.

SMILES strings stand for the structures.

Turning to `CC(=O)N[C@@H](CCC(N)=O)C(=O)N[C@@H](CO)C(=O)N[C@@H](CCC(N)=O)C(=O)N[C@@H](CCC(N)=O)C(=O)N[C@H](C(=O)N[C@@H](Cc1ccccc1)C(=O)N[C@@H](CSS/C(=C/Cl)CCC(=O)Oc1c(F)c(F)c(F)c(F)c1F)C(=O)N[C@@H](CC(N)=O)C(=O)N[C@@H](CC(C)C)C(=O)N[C@@H](Cc1c[nH]c2ccccc12)C(=O)N[C@@H](CCCNC(=N)N)C(=O)N[C@@H](CC(C)C)C(=O)N[C@@H](CC(C)C)C(=O)N[C@@H](CCCCN)C(=O)N[C@@H](CCC(N)=O)C(=O)N[C@@H](CC(N)=O)C(N)=O)[C@@H](C)O`, the ring closure, isolated yield (34-membered ring) amounted to 79%.
Take `CC(=O)N[C@@H](CCC(N)=O)C(=O)N[C@@H](CO)C(=O)N[C@@H](CCC(N)=O)C(=O)N[C@@H](CCC(N)=O)C(=O)N[C@H](C(=O)N[C@@H](Cc1ccccc1)C(=O)N[C@@H](CSS/C(=C/Cl)CCCCC(=O)Oc1c(F)c(F)c(F)c(F)c1F)C(=O)N[C@@H](CC(N)=O)C(=O)N[C@@H](CC(C)C)C(=O)N[C@@H](Cc1c[nH]c2ccccc12)C(=O)N[C@@H](CCCNC(=N)N)C(=O)N[C@@H](CC(C)C)C(=O)N[C@@H](CC(C)C)C(=O)N[C@@H](CCCCN)C(=O)N[C@@H](CCC(N)=O)C(=O)N[C@@H](CC(N)=O)C(N)=O)[C@@H](C)O`: under “36-membered ring”, the ring closure, isolated yield was 84%.
On to `CC(=O)N[C@@H](CCC(N)=O)C(=O)N[C@@H](CO)C(=O)N[C@@H](CCC(N)=O)C(=O)N[C@@H](CCC(N)=O)C(=O)N[C@H](C(=O)N[C@@H](Cc1ccccc1)C(=O)N[C@@H](CSS/C(=C/Cl)CCCCCC(=O)Oc1c(F)c(F)c(F)c(F)c1F)C(=O)N[C@@H](CC(N)=O)C(=O)N[C@@H](CC(C)C)C(=O)N[C@@H](Cc1c[nH]c2ccccc12)C(=O)N[C@@H](CCCNC(=N)N)C(=O)N[C@@H](CC(C)C)C(=O)N[C@@H](CC(C)C)C(=O)N[C@@H](CCCCN)C(=O)N[C@@H](CCC(N)=O)C(=O)N[C@@H](CC(N)=O)C(N)=O)[C@@H](C)O`, for which, where the note is “37-membered ring”, the ring closure, isolated yield was 78%.
With `CC(=O)N[C@@H](CCC(N)=O)C(=O)N[C@@H](CO)C(=O)N[C@@H](CCC(N)=O)C(=O)N[C@@H](CCC(N)=O)C(=O)N[C@H](C(=O)N[C@@H](Cc1ccccc1)C(=O)N[C@@H](CSS/C(=C/Cl)CCOc1ccc(C(=O)Oc2c(F)c(F)c(F)c(F)c2F)cc1)C(=O)N[C@@H](CC(N)=O)C(=O)N[C@@H](CC(C)C)C(=O)N[C@@H](Cc1c[nH]c2ccccc12)C(=O)N[C@@H](CCCNC(=N)N)C(=O)N[C@@H](CC(C)C)C(=O)N[C@@H](CC(C)C)C(=O)N[C@@H](CCCCN)C(=O)N[C@@H](CCC(N)=O)C(=O)N[C@@H](CC(N)=O)C(N)=O)[C@@H](C)O`, the ring closure, isolated yield (39-membered ring) was 68%.
Take `CC(=O)N[C@@H](CCC(N)=O)C(=O)N[C@@H](CO)C(=O)N[C@@H](CCC(N)=O)C(=O)N[C@@H](CCC(N)=O)C(=O)N[C@H](C(=O)N[C@@H](Cc1ccccc1)C(=O)N[C@@H](CSS/C(=C/Cl)CCOc1cccc(C(=O)Oc2c(F)c(F)c(F)c(F)c2F)c1)C(=O)N[C@@H](CC(N)=O)C(=O)N[C@@H](CC(C)C)C(=O)N[C@@H](Cc1c[nH]c2ccccc12)C(=O)N[C@@H](CCCNC(=N)N)C(=O)N[C@@H](CC(C)C)C(=O)N[C@@H](CC(C)C)C(=O)N[C@@H](CCCCN)C(=O)N[C@@H](CCC(N)=O)C(=O)N[C@@H](CC(N)=O)C(N)=O)[C@@H](C)O`: the ring closure, isolated yield (38-membered ring) turned out to be 85%.
For `CC(=O)N[C@@H](CCC(N)=O)C(=O)N[C@@H](CO)C(=O)N[C@@H](CCC(N)=O)C(=O)N[C@@H](CCC(N)=O)C(=O)N[C@H](C(=O)N[C@@H](Cc1ccccc1)C(=O)N[C@@H](CSS/C(=C/Cl)CCOc1ccccc1C(=O)Oc1c(F)c(F)c(F)c(F)c1F)C(=O)N[C@@H](CC(N)=O)C(=O)N[C@@H](CC(C)C)C(=O)N[C@@H](Cc1c[nH]c2ccccc12)C(=O)N[C@@H](CCCNC(=N)N)C(=O)N[C@@H](CC(C)C)C(=O)N[C@@H](CC(C)C)C(=O)N[C@@H](CCCCN)C(=O)N[C@@H](CCC(N)=O)C(=O)N[C@@H](CC(N)=O)C(N)=O)[C@@H](C)O`, the ring closure, isolated yield (37-membered ring) worked out at 65%.
As to `CC(=O)N[C@@H](CCC(N)=O)C(=O)N[C@@H](CO)C(=O)N[C@@H](CCC(N)=O)C(=O)N[C@@H](CCC(N)=O)C(=O)N[C@H](C(=O)N[C@@H](Cc1ccccc1)C(=O)N[C@@H](CSS/C(=C/Cl)COCC(=O)Oc1c(F)c(F)c(F)c(F)c1F)C(=O)N[C@@H](CC(N)=O)C(=O)N[C@@H](CC(C)C)C(=O)N[C@@H](Cc1c[nH]c2ccccc12)C(=O)N[C@@H](CCCNC(=N)N)C(=O)N[C@@H](CC(C)C)C(=O)N[C@@H](CC(C)C)C(=O)N[C@@H](CCCCN)C(=O)N[C@@H](CCC(N)=O)C(=O)N[C@@H](CC(N)=O)C(N)=O)[C@@H](C)O`, where the note is “35-membered ring”, the ring closure, isolated yield was found to be 89%.
For the molecule `CC(=O)N[C@H](C(=O)N[C@@H](CO)C(=O)N[C@@H](Cc1ccccc1)C(=O)N[C@@H](CCCCN)C(=O)N[C@@H](CCC(N)=O)C(=O)N[C@@H](Cc1ccc(O)cc1)C(=O)N[C@@H](Cc1c[nH]c2ccccc12)C(=O)N[C@@H](CSS/C(=C/Cl)CCC(=O)Oc1c(F)c(F)c(F)c(F)c1F)C(=O)N[C@@H](CC(C)C)C(=O)N[C@@H](CC(C)C)C(=O)N[C@@H](CO)C(=O)N[C@@H](CCCNC(=N)N)C(N)=O)[C@@H](C)O`, the ring closure, isolated yield (25-membered ring) amounted to 69%.
With `CC(=O)N[C@H](C(=O)N[C@@H](CO)C(=O)N[C@@H](Cc1ccccc1)C(=O)N[C@@H](CCCCN)C(=O)N[C@@H](CCC(N)=O)C(=O)N[C@@H](Cc1ccc(O)cc1)C(=O)N[C@@H](Cc1c[nH]c2ccccc12)C(=O)N[C@@H](CSS/C(=C/Cl)CCCC(=O)Oc1c(F)c(F)c(F)c(F)c1F)C(=O)N[C@@H](CC(C)C)C(=O)N[C@@H](CC(C)C)C(=O)N[C@@H](CO)C(=O)N[C@@H](CCCNC(=N)N)C(N)=O)[C@@H](C)O`, under “26-membered ring”, the ring closure, isolated yield is 85%.
With `CC(=O)N[C@H](C(=O)N[C@@H](CO)C(=O)N[C@@H](Cc1ccccc1)C(=O)N[C@@H](CCCCN)C(=O)N[C@@H](CCC(N)=O)C(=O)N[C@@H](Cc1ccc(O)cc1)C(=O)N[C@@H](Cc1c[nH]c2ccccc12)C(=O)N[C@@H](CSS/C(=C/Cl)CCCCC(=O)Oc1c(F)c(F)c(F)c(F)c1F)C(=O)N[C@@H](CC(C)C)C(=O)N[C@@H](CC(C)C)C(=O)N[C@@H](CO)C(=O)N[C@@H](CCCNC(=N)N)C(N)=O)[C@@H](C)O`, for the setting “27-membered ring”, the ring closure, isolated yield turned out to be 76%.
In the case of `CC(=O)N[C@H](C(=O)N[C@@H](CO)C(=O)N[C@@H](Cc1ccccc1)C(=O)N[C@@H](CCCCN)C(=O)N[C@@H](CCC(N)=O)C(=O)N[C@@H](Cc1ccc(O)cc1)C(=O)N[C@@H](Cc1c[nH]c2ccccc12)C(=O)N[C@@H](CSS/C(=C/Cl)CCCCCCCCC(=O)Oc1c(F)c(F)c(F)c(F)c1F)C(=O)N[C@@H](CC(C)C)C(=O)N[C@@H](CC(C)C)C(=O)N[C@@H](CO)C(=O)N[C@@H](CCCNC(=N)N)C(N)=O)[C@@H](C)O`, the ring closure, isolated yield (31-membered ring) came to 68%.
Turning to `CC(=O)N[C@H](C(=O)N[C@@H](CO)C(=O)N[C@@H](Cc1ccccc1)C(=O)N[C@@H](CCCCN)C(=O)N[C@@H](CCC(N)=O)C(=O)N[C@@H](Cc1ccc(O)cc1)C(=O)N[C@@H](Cc1c[nH]c2ccccc12)C(=O)N[C@@H](CSS/C(=C/Cl)CCOc1cccc(C(=O)Oc2c(F)c(F)c(F)c(F)c2F)c1)C(=O)N[C@@H](CC(C)C)C(=O)N[C@@H](CC(C)C)C(=O)N[C@@H](CO)C(=O)N[C@@H](CCCNC(=N)N)C(N)=O)[C@@H](C)O`, for the setting “29-membered ring”, the ring closure, isolated yield was determined as 85%.
`CC(=O)N[C@H](C(=O)N[C@@H](CO)C(=O)N[C@@H](Cc1ccccc1)C(=O)N[C@@H](CCCCN)C(=O)N[C@@H](CCC(N)=O)C(=O)N[C@@H](Cc1ccc(O)cc1)C(=O)N[C@@H](Cc1c[nH]c2ccccc12)C(=O)N[C@@H](CSS/C(=C/Cl)CCOc1ccccc1C(=O)Oc1c(F)c(F)c(F)c(F)c1F)C(=O)N[C@@H](CC(C)C)C(=O)N[C@@H](CC(C)C)C(=O)N[C@@H](CO)C(=O)N[C@@H](CCCNC(=N)N)C(N)=O)[C@@H](C)O`: for the setting “28-membered ring”, the ring closure, isolated yield stood at 82%.
Consider `CC(=O)N[C@H](C(=O)N[C@@H](CO)C(=O)N[C@@H](Cc1ccccc1)C(=O)N[C@@H](CCCCN)C(=O)N[C@@H](CCC(N)=O)C(=O)N[C@@H](Cc1ccc(O)cc1)C(=O)N[C@@H](Cc1c[nH]c2ccccc12)C(=O)N[C@@H](CSS/C(=C/Cl)COCC(=O)Oc1c(F)c(F)c(F)c(F)c1F)C(=O)N[C@@H](CC(C)C)C(=O)N[C@@H](CC(C)C)C(=O)N[C@@H](CO)C(=O)N[C@@H](CCCNC(=N)N)C(N)=O)[C@@H](C)O`, for which the ring closure, isolated yield (26-membered ring) came out at 78%.
On the same count and under the same terms, under `CC(=O)N[C@H](C(=O)N[C@@H](CO)C(=O)N[C@@H](Cc1ccccc1)C(=O)N[C@@H](CCCCN)C(=O)N[C@@H](CCC(N)=O)C(=O)N[C@@H](Cc1ccc(O)cc1)C(=O)N[C@@H](Cc1c[nH]c2ccccc12)C(=O)N[C@@H](CSS/C(=C/Cl)c1cccc(C(=O)Oc2c(F)c(F)c(F)c(F)c2F)c1)C(=O)N[C@@H](CC(C)C)C(=O)N[C@@H](CC(C)C)C(=O)N[C@@H](CO)C(=O)N[C@@H](CCCNC(=N)N)C(N)=O)[C@@H](C)O` stands 84%.

The record behind these values is paper PMC12596731, “Cys–Lys stapling for unprotected peptides via tunable linkers” (National Science Review, 2025).
